Paper PMC11554305, “Functional identification of soluble uric acid as an endogenous inhibitor of CD38” (eLife, 2024)
Like-named read-outs stand apart in the source and are kept apart here.

Assays:
[1] = Solubility and crystal precipitation in solution; format: physicochemical
Method: (§1) Guanosine was dissolved in DMSO and diluted in the reaction buffer for subsequent assays.
MSU crystals were prepared by the recrystallization of oversaturated sUA according to a previous report ([Martinon et al., 2006]). Improper preparation of sUA solution may introduce crystals to cause false-positive or false-negative results. […] In this study, the sUA solution was prepared according to an improved protocol ([Ma et al., 2020]). […] Then, sUA solution was immediately filtered by 0.2 μm filters and diluted to experimental concentration (up to 10 mg/dL, 595 μM) for cell experiments. […]

CD38 = experiment: Hydrolase and cyclase activities of human and murine CD38; format: biochemical; conditions: for Effect on CD38 activity: analogs and fragments, 5 to 500 μM, recombinant hCD38, THP-1 cells, WT lung tissues, Figure 2D, E; for Effect on hydrolase and cyclase activities of human and murine CD38: sUA precursors and metabolite, above physiological levels, Figure 2B, C and supplement 1A–C
Method: The hydrolase activity of CD38 was measured according to a previous report ([de Oliveira et al., 2018]) with minor modifications. CD38 hydrolase activity was measured using 50 μM ε-NAD^+ as a substrate in hydrolase reaction buffer (250 mM sucrose, 40 mM Tris-HCl, pH 7.4). Briefly, cells or tissues were directly homogenized in blank reaction buffer on ice, and recombinant hCD38 was diluted in blank reaction buffer for subsequent assays. The tissue homogenates were centrifuged to collect the supernatant for enzyme assays. The loading volume of enzyme was 4–30 μL, the total volume of the reaction system was 3 mL. To detect enzyme inhibition, except when specified, the ligands were directly dissolved in hydrolase reaction buffer before pH adjustment, after which, the pH was immediately adjusted to 7.4. All reaction buffers, with or without ligands, were freshly prepared before each assay. For measurement of hydrolase activity, 3 mL reaction buffer containing enzyme, ε-NAD^+, and ligands at indicated concentrations was maintained at 37°C with constant stirring.
The cyclase activity of CD38 was measured as previously described ([Higashida et al., 1999]; [Jin et al., 2007]). CD38 cyclase activity was measured using 60 μM NGD as a substrate in cyclase reaction buffer (100 mM KCl, 10 μM CaCl2, and 50 mM Tris-HCl, pH 6.6). Tissues were cut into pieces and suspended in the buffer (5 mM MgCl2, 10 mM Tris-HCl, pH 7.3) at 4°C for 30 min. Then, the suspension was homogenized on ice, and the supernatant was collected after centrifugation. To collect the crude membrane fractions, the supernatant was centrifuged at 105,000×g for 30 min. The final pellet was resuspended in 10 mM Tris-HCl solution (pH 6.6) for cyclase assay. Homogenates of THP-1 or A549 cells, and recombinant hCD38 were used directly for cyclase assays. The loading volume of enzyme was 4–20 μL, the total volume of reaction system was 3 mL. To detect enzyme inhibition, except when specified, the ligands were directly dissolved in cyclase reaction buffer before pH adjustment, after which, the pH was immediately adjusted to 6.6. All reaction buffers, with or without ligands, were freshly prepared before each assay. For measurement of cyclase activity, 3 mL reaction buffer containing enzyme, NGD, and ligands at indicated concentrations was maintained at 37°C with constant stirring.
The reaction buffer for hydrolase or cyclase assays was excited at 300 nm, and fluorescence emission was measured every second at 410 nm by Shimazu RF-6000 spectrofluorometer. Hydrolase or cyclase activity was calculated from the linear portion of the time course by fitting a linear function to the data points recorded within 5 min.
as §1
For reversibility test, recombinant hCD38 was pre-incubated for 30 min in four conditions: (1) control reaction buffer; (2) in the presence of 100 μM substrate (ε-NAD^+ or NGD); (3) 500 μM sUA; (4) both substrate and sUA. Subsequently, the enzyme was diluted 100-fold in reaction buffer in the presence or absence of 500 μM sUA for activity assays using ε-NAD^+ or NGD. Naïve THP-1 and A549 cells were incubated with RPMI-1640 medium in the presence or absence of 500 μM sUA for 2 hr. The cells were collected and homogenized in the reaction buffer on ice with or without 500 μM sUA, samples were then diluted 100-fold in reaction buffer with or without 500 μM sUA for enzyme assay. Control group was not treated with sUA in all steps; sUA group was treated with sUA in each step; sUA release group was treated with sUA prior to dilution in sUA-free buffer for enzyme assays.

Effect on hydrolase and cyclase activities of human and murine CD38 (CD38) | Molecule | further results
 | 8-oxoguanine [8-OG, reference compound] | Solubility in reaction buffer [1]: limited solubility
 | O=c1[nH]cc[nH]1 [1,3-DHI-2-one, 1,3-dihydroimidazol-2-one] | Effect on CD38 activity (CD38): did not affect CD38 activity
hardly inhibited | Nc1ncnc2c1ncn2[C@@H]1O[C@H](CO)[C@@H](O)[C@H]1O [Adenosine, adenosine] | 
hardly inhibited | NC(=O)NC1NC(=O)NC1=O (stereo not drawn) [Allantoin, allantoin] | 
hardly inhibited | Nc1nc2c(ncn2[C@@H]2O[C@H](CO)[C@@H](O)[C@H]2O)c(=O)[nH]1 [Guanosine, guanosine, reference compound] | Solubility in reaction buffer ([1]; tested only at 50 μM): limited solubility
hardly inhibited | O=c1[nH]cnc2nc[nH]c12 [Hypoxanthine, hypoxanthine] | 
 | O=c1cc[nH]c(=O)[nH]1 [Uracil, uracil] | Effect on CD38 activity (CD38): did not affect CD38 activity
hardly inhibited | O=c1[nH]c(=O)c2nc[nH]c2[nH]1 [Xanthine, xanthine] | 
